How the values were obtained:
[1] = target: hCA I (Homo sapiens, UniProt P00915); assay: CAs inhibition assay (esterase activity, p-nitrophenyl acetate); assay type: biochemical
Excerpt: Human CA isoforms (hCAI and hCAII) were purified by the Sepharose - 4B - L - tyrosine - sulfanilamide affinity segregation method as reported. […] Inhibitory effects of the compounds were investigated by measuring the esterase activity according to Verpoorte et al. as described in previous. […] All chemicals were purchased from Sigma-Aldrich Chemie GmbH.

[2] = target: hCA II (Homo sapiens, UniProt P00918); assay: as above; assay type: biochemical
Description: Human CA isoforms (hCAI and hCAII) were purified by the Sepharose - 4B - L - tyrosine - sulfanilamide affinity segregation method as reported. Bradford technique was used to measure protein concentrations at 595 nm. Inhibitory effects of the compounds were investigated by measuring the esterase activity according to Verpoorte et al. as described in previous. The hCA activity was determined by measuring the conversion of thep-nitrophenyl acetate substrate to p -nitro phenolate at 348 nm by the spectrophotometer (UV - VIS Spectrophotometer, UVmini-1240, Shimadzu Corporation, Kyoto, Japan). Acetazolamide (AZA) was used as a control drug. Lineweaver–Burk plot was used to calculate inhibition constants (Ki) of the compounds [33]. All chemicals were purchased from Sigma-Aldrich Chemie GmbH.

Sequence of hCA I (P00915 whole entry, canonical isoform): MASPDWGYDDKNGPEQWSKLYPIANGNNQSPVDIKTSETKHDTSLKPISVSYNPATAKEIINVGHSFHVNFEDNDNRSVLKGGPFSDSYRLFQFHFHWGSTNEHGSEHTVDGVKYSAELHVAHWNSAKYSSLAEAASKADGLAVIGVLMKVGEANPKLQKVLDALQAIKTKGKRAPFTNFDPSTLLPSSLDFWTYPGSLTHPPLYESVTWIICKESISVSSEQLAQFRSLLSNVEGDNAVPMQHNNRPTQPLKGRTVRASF

SMILES	IC50 [1] [µM]	Ki [1] [µM]	IC50 [2] [µM]	Ki [2] [µM]	fold more potent against hCAII than reference AZA ([2]; based on Ki values) [fold]	fold more potent inhibitor against hCAI than reference AZA ([1]; based on Ki values) [fold]
O=C(CSc1nc2ccccc2s1)c1ccc(O)cc1 [Compound 1, 2-(Benzo[d]thiazol-2-ylthio)-1-(4-hydroxyphenyl)ethanone]	0.0354	0.0146 ± 0.00206	0.0294	0.00876 ± 0.00084	2.0	–
O=C(CSc1nc2ccccc2o1)c1ccc(O)cc1 [Compound 2, 2-(Benzo[d]oxazol-2-ylthio)-1-(4-hydroxyphenyl)ethanone]	0.0328	0.00861 ± 0.0009	0.0436	0.0234 ± 0.00713	–	2.5
Cn1ccnc1SCC(=O)c1ccc(O)cc1 [Compound 3, 1-(4-Hydroxyphenyl)-2-((1-methyl-1H-imidazol-2-yl)thio)ethanone]	0.0352	0.0178 ± 0.00208	0.0398	0.0316 ± 0.00329	–	–
Cc1nnc(SCC(=O)c2ccc(O)cc2)s1 [Compound 4, 1-(4-Hydroxyphenyl)-2-((5-methyl-1,3,4-thiadiazol-2-yl)thio)ethanone]	0.0481	0.0138 ± 0.00247	0.0417	0.0169 ± 0.00399	–	–
Cn1cnnc1SCC(=O)c1ccc(O)cc1 [Compound 5, 1-(4-Hydroxyphenyl)-2-((4-methyl-4 H -1,2,4-triazol-3-yl)thio)ethanone]	0.0656	0.0426 ± 0.00759	0.034	0.0143 ± 0.0051	–	–
Cn1nnnc1SCC(=O)c1ccc(O)cc1 [Compound 6, 1-(4-Hydroxyphenyl)-2-((1-methyl-1 H -tetrazol-5-yl)thio)ethanone]	0.0625	0.0144 ± 0.00371	0.0573	0.0274 ± 0.0118	–	–
